Results: the METLIN SMRT retention time set (Domingo-Almenara et al. 2019)

Test: gradient 5% acetonitrile 3 min, to 50% in 2 min, to 85% in 15 min, held 3 min, 100 µL/min
Details: column: Zorbax Extend-C18 2.1 x 50 mm; eluents: water / acetonitrile, 0.1% formic acid
How it was run: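 The mobile phases were water and acetonitrile, each with 0.1% formic acid, pumped at 100 μL/min through a Zorbax Extend-C18 column (2.1 × 50 mm, 1.8 μm). Pure standards were injected as mixtures of ~100 molecules and detected by a quadrupole time-of-flight mass spectrometer in positive and negative ionization mode. Retention time came from computationally picked adduct peaks, each inspected by hand.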

COc1cccc(-c2noc(Cn3cnc4c(oc5ccccc54)c3=O)n2)c1
RP-LC retention time: 938 s

CC(C)CNC(=O)CCc1nc2ccccc2n(CC(=O)NCc2ccc3c(c2)OCO3)c1=O
RP-LC retention time: 748 s

Cc1cc(C)n(-c2ccnc(N3CCC(C(=O)NCC4CC4)CC3)n2)n1
RP-LC retention time: 739 s

CCCN1C(=O)CCc2cc(NC(=O)COc3ccc(F)cc3)ccc21
RP-LC retention time: 888 s

CCc1sc(NC(=O)c2cc(OC)cc(OC)c2)nc1-c1ccccc1
RP-LC retention time: 1200 s

COc1ccc(-c2nc3ncccn3c2Nc2ccccc2C)cc1
RP-LC retention time: 705 s

COc1cccc(NS(=O)(=O)c2cc3c(s2)CCN(C(=O)C2CC2)C3)c1
RP-LC retention time: 801 s

COc1ccc(S(=O)(=O)CCc2noc(C(=O)NCc3cc(OC)c(OC)c(OC)c3)n2)cc1
RP-LC retention time: 790 s

Cc1ccc([N+](=O)[O-])cc1NC(=O)Cc1cc(-c2ccc(F)cc2)on1
RP-LC retention time: 896 s

COc1cc([C@@H]2c3cc4c(cc3[C@H](O)[C@@H](CO)[C@@H]2C(=O)NCCC2=CCCCC2)OCO4)cc(OC)c1OC
RP-LC retention time: 781 s

Cc1nn(-c2ccc3nnc(C)n3n2)c(C)c1CCC(=O)NCCc1c[nH]c2ccccc12
RP-LC retention time: 726 s

N#Cc1cccc(-c2cn3c(n2)N(C(=O)Cc2ccsc2)CCC3)c1
RP-LC retention time: 822 s

O=C(Cn1c(=O)oc2cc(Cl)ccc21)N1CCN(c2ccccn2)CC1
RP-LC retention time: 630 s

Cc1ccccc1NC(=O)Nc1ccc2c(c1)CCN2S(=O)(=O)c1ccccc1
RP-LC retention time: 969 s

CCCNC(=O)c1c2c(nc3ccc(C)cc13)CCC2
RP-LC retention time: 625 s

Cn1cnc2c(F)c(Nc3ccc(Br)cc3Cl)c(C(=O)NOCCO)cc21
RP-LC retention time: 789 s

COc1ccccc1N1CCN(CCNC(=O)c2c(F)cccc2F)CC1
RP-LC retention time: 567 s

COc1ccc(N2CC(C(=O)N3CCN(c4ccccn4)CC3)CC2=O)cc1 (centres undefined)
RP-LC retention time: 582 s

CCc1nc2cc(N3CCC(C(=O)N(C)Cc4ccco4)CC3)cnc2nc1CC
RP-LC retention time: 755 s

Cc1cccc(C)c1NC(=O)Cn1nc2n(c1=O)CCCCC2
RP-LC retention time: 684 s

CC1=C(c2ccc(F)cc2)S(=O)(=O)N=C1N1CCCN(C(=O)c2ccsc2)CC1
RP-LC retention time: 802 s

Cc1cccc(NC(=O)c2cc(C(C)(C)C)n3nccc3n2)c1
RP-LC retention time: 1240 s

COC(=O)c1cc(S(=O)(=O)N2CCN(c3cccc(C)c3)C(C)C2)c(C)n1C (centres undefined)
RP-LC retention time: 1080 s

O=C(NC1CC1)c1ccc(-c2cccs2)nc1
RP-LC retention time: 716 s

CC1(C(=O)NC2CCCCCC2)CN(S(C)(=O)=O)CC(=O)N1Cc1ccc(Cl)cc1 (centres undefined)
RP-LC retention time: 946 s

CN1C(=O)c2cccnc2Sc2cc(C(=O)N3CCc4ccccc43)ccc21
RP-LC retention time: 789 s

O=C(C1=NN(Cc2ccccc2)c2ccc(Cl)cc2S1(=O)=O)N1CCOCC1
RP-LC retention time: 824 s

O=C(Cn1c(=O)n(-c2ccccc2)c2ncccc21)NC1CCN(Cc2ccccc2)CC1
RP-LC retention time: 630 s

CCn1c(=O)c2ccn(CC(=O)NCc3ccc(C)cc3)c2n(CC)c1=O
RP-LC retention time: 706 s

CCCNc1cc(N2CCC(CCC(=O)N3CCN(c4ccccn4)CC3)CC2)ncn1
RP-LC retention time: 570 s

O=C(NC1CC1)c1ccc(OCC2CCN(C(=O)Cc3cccs3)CC2)cc1
RP-LC retention time: 780 s

O=c1ccc(-c2ccco2)nn1CCCNS(=O)(=O)/C=C/c1ccccc1
RP-LC retention time: 759 s

COc1cccc(-c2cc(=O)n3c4ccccc4n(CC(=O)Nc4ccc(F)cc4)c3n2)c1
RP-LC retention time: 980 s

Cc1c(Cl)cccc1S(=O)(=O)NCC1CCN(C(=O)c2cc3ccccc3o2)CC1
RP-LC retention time: 934 s

CCCn1c(-c2cccc(C(=O)NCc3ccncc3)c2)nc2cccnc21
RP-LC retention time: 592 s

COc1ccc(-c2nnc(-c3cccc(S(=O)(=O)N4CCOCC4)c3)o2)cc1
RP-LC retention time: 868 s

O=C1[C@H]2CN(Cc3cc(Br)ccc3F)C[C@H]2C(=O)N1CCc1ccccc1
RP-LC retention time: 1030 s

CCOc1ccc(C(=O)N2CCCN(c3cc(-c4ccc(Br)cc4)[nH]n3)CC2)cc1OCC
RP-LC retention time: 853 s

O=C(NCC1CC1)c1c(O)c2sccc2n(Cc2ccccc2)c1=O
RP-LC retention time: 766 s

Nc1ccc2ncnc(N3CCCCC3)c2c1
RP-LC retention time: 593 s

CCn1c(C(=O)NCCCN2CCOCC2)cc2c(-c3cccs3)nn(-c3ccccc3)c21
RP-LC retention time: 705 s

COc1cc(C(CC(=O)N2CCCC2)N2Cc3ccccc3C2=O)cc(OC)c1OC (centres undefined)
RP-LC retention time: 661 s

NC(=O)c1cn(Cc2c(F)cccc2F)nn1
RP-LC retention time: 684 s

Cc1ccc(C)c(-c2csc(Nc3ccc(Br)cn3)n2)c1
RP-LC retention time: 1330 s

Cn1cc(C(=O)N2CCCC(c3nnc4n3CCN(C3CCCC3)C4)C2)cn1 (centres undefined)
RP-LC retention time: 553 s

O=C(CN1CCC2(CC1)N=C(c1ccc(F)cc1)C(=O)N2)Nc1cc(F)ccc1F
RP-LC retention time: 692 s

COCCOCC1CCN(C(=O)CNC(=O)c2ccccc2)CC1
RP-LC retention time: 620 s

Cc1ccccc1C(=O)Nc1nnc(SCc2nnc(-c3ccccc3)o2)s1
RP-LC retention time: 917 s

CCCS(=O)(=O)N1CC(=O)N(c2ccc(C)c(Cl)c2)C(C)(C(=O)NC2CCCCC2)C1 (centres undefined)
RP-LC retention time: 979 s

Cc1c(CN2CCSCC2)nnn1-c1ccccc1
RP-LC retention time: 583 s

O=C(Nc1ccccc1-c1nc2ccccc2[nH]1)c1cc2ccccc2o1
RP-LC retention time: 1080 s

O=C(NCC(F)(F)F)C1CN(C(=O)c2ccc(F)c(F)c2)C1
RP-LC retention time: 667 s

c1ccc2c(N3CCNCC3)cccc2c1
RP-LC retention time: 690 s

CCOC(=O)c1cc(C)n(CC(=O)N2CCOCCNC(=O)CC2)c1C
RP-LC retention time: 652 s

Cc1ccc(-n2cc3c(c(C(=O)N4CCN(c5ccccn5)CC4)c2=O)CC(C)(C)CC3=O)cc1
RP-LC retention time: 659 s

COc1ccc2[nH]c3c(c2c1)CCNC3c1ccc(F)cc1 (centres undefined)
RP-LC retention time: 623 s

CCCCCCCNC(=O)C1CCCN(c2ncc(-c3ccccc3)cn2)C1 (centres undefined)
RP-LC retention time: 1260 s

CCOc1ccc(S(=O)(=O)N2CCCC(C(=O)NCCOC)C2)cc1 (centres undefined)
RP-LC retention time: 709 s

O=C(Cc1ccc(F)cc1)N1CCC2(CC1)N=C(c1ccc(Cl)cc1)NO2
RP-LC retention time: 889 s

COc1ccc(S(=O)(=O)N2CCN(c3cc(C)nc(N4CCCC4)n3)CC2)cc1Cl
RP-LC retention time: 754 s

O=C(NCc1ccc(F)c(Cl)c1)c1nnn(-c2ccccc2)c1-c1ccccn1
RP-LC retention time: 872 s

CCOC(=O)C1CCN(C(=O)c2n[nH]c(=O)c3ccccc23)CC1
RP-LC retention time: 677 s

COc1cccc(Cn2cccc(S(=O)(=O)N3CCC(C)CC3)c2=O)c1
RP-LC retention time: 954 s

COc1ccc(C(=O)NCc2ccc3c(c2)ncn3C(C)C)cc1F
RP-LC retention time: 632 s

Cc1nnc2ccc(N3CCN(C(=O)Cc4cccc5ccccc45)CC3)nn12
RP-LC retention time: 660 s

COc1ccc(NC(=O)N2CCCC2c2nc(-c3ccc(F)cc3F)no2)cc1Cl (centres undefined)
RP-LC retention time: 982 s

Cc1ccc(NC(=O)Cn2nc3c(N4CCCCCC4)nccn3c2=O)c(C)c1
RP-LC retention time: 714 s

CC(=O)N1CCC(CC(=O)N2CCCCCCN(C)C(=O)[C@@H]3CCC[C@@H]32)CC1
RP-LC retention time: 663 s

Cn1nc(-c2nnc(-c3ccccc3Cl)o2)c2c1CCN(C(=O)NC1CCCCC1)C2
RP-LC retention time: 899 s

Cc1c(Cl)cccc1NC(=O)NCC1CCOCC1
RP-LC retention time: 720 s

COc1ccc(-c2nc(C)cc(C)c2CNS(=O)(=O)c2ccc(C)cc2)cc1
RP-LC retention time: 670 s

CCn1nccc1C(=O)Nc1cc(-c2cc3cc(OC)ccc3n2CC)[nH]n1
RP-LC retention time: 846 s

O=C(Nc1ccc(Br)cc1F)N1CCC(n2cnc3cccnc32)CC1
RP-LC retention time: 690 s

COc1ccc(-c2noc(-c3nnn4c3COC(c3ccc(C)cc3C)C4)n2)cc1 (centres undefined)
RP-LC retention time: 1250 s

CN(C)S(=O)(=O)c1ccc(-c2nnc(C(=O)NCCN3CCCC3)o2)cc1
RP-LC retention time: 574 s

O=S(=O)(NCc1ccc(F)cc1)c1ccc(N2CCCCS2(=O)=O)cc1
RP-LC retention time: 777 s

Cc1cc(Cl)ccc1NC(=O)C1CCN(c2c(C(=O)N3CCOCC3)cnc3snc(C)c23)CC1
RP-LC retention time: 847 s

O=C(NCc1ccco1)c1cn(-c2cc(N3CCOCC3)ncn2)cn1
RP-LC retention time: 651 s

COc1ccc(-c2nc(Cn3c(=O)c4c(C)cc(C)nc4n(C)c3=O)c(C)o2)cc1
RP-LC retention time: 1200 s

COCCN1CCC2(CC1)CN(Cc1cccc(F)c1)Cc1ccccc1O2
RP-LC retention time: 629 s

Cc1ccc(CN2C(=O)C3(CCOCC3)CC2c2nnnn2C(C)(C)C)cc1 (centres undefined)
RP-LC retention time: 783 s

O=C(NCc1cccc(Br)c1)C1CCN(C(=O)C2Sc3ccccc3NC2=O)CC1 (centres undefined)
RP-LC retention time: 800 s

CC(C)NC(=O)c1cc2nc(N(C)C)n(-c3ccc(F)cc3)c2s1
RP-LC retention time: 627 s

CCC(c1cccs1)N1C(=O)[C@H]2CN(S(=O)(=O)c3ccc(F)cc3F)C[C@H]2C1=O (some centres undefined)
RP-LC retention time: 1000 s

O=C(Nc1cnc(N2CCCC2)nc1)c1ccc(F)c(Cl)c1
RP-LC retention time: 804 s

O=C(COc1ccc2ccccc2c1)NCC1CCN(C2CCCC2)CC1
RP-LC retention time: 590 s

Cc1cc(C)cc(C(=O)N2CCC(c3nc4ccncc4n3C)C2)c1 (centres undefined)
RP-LC retention time: 547 s

CCCCNC(=O)c1cc(NC(=O)CC)cc2nc(C)ccc12
RP-LC retention time: 595 s

COC(=O)c1ccccc1NC(=O)Cn1cccc(-c2nc(-c3ccc(OC)c(OC)c3)no2)c1=O
RP-LC retention time: 871 s
